Measurements taken from patent US8865163B2, “Pharmaceutical compositions and methods of treatment” (priority 2010, dated 2014).

Columns and labels:
Assay type in all cases: in vivo
[1] = Feed consumption and body mass growth of C57B1 mice on high calorie diet, 5 months
Text: (§1) The test substance was in the form of an aqueous solution of ultra-low doses of polyclonal rabbit antibodies to human cannabinoid receptor type 1 (ULD anti-CB1), purified on antigen, obtained by hyper-dilution of the initial matrix solution 100^12, 100^30, 100^200 times (mixture of centesimal homeopathic dilutions C12, C30, and C200).
40 male mice of the C57B1 line were used in the study (weight at the beginning of the study: 13.5-15.5 g). 10 mice received the regular standard feed (standard diet); 30 mice received the standard feed with high calorie additives (high calories diet) and, simultaneously, either distilled water (control, 0.4 ml/mouse) or Subutramine (Meridia 10 mg capsules, Abbott GmbH, Germany) (10 mg/Kg) or ULD anti-CB1 (0.4 ml/mouse). All preparations were given intragastrically once a day in the course of 5 months. The mice consumption of feed was measured before test substances were introduced. The mice consumption of feed was also measured each week thereafter. The consumption of feed was evaluated as an average quantity of food (in grams), consumed by a mouse after 1 and 2 months of the study, and as an average quantity of feed per 10 g of mouse body mass.

[2] = Body mass growth of C57B1 mice on high (45%) fat diet, 2 months; conditions: for Body mass (grams): high fat diet
Text: as §1
33 male mice of the C57B1 line were used in the study (weight at the beginning of the study: 13.09±0.738 g). The mice received the modified diet with high (45%) fat content and simultaneously either distilled water (control, 0.2 ml/mouse) or Subutramine (10 mg/Kg) or ULD anti-CB1 (0.2 ml/mouse). All ULD anti-CB1 preparations were given intragastrically once a day in the course of 2 months. The mice weight was measured on Philips Cucina HR 239016 (Hungary) electronic scales until beginning to introduce the preparations (initially) and also each week after beginning to introduce them. The body mass growth of the mice was evaluated as a percentage of the initial weight.

[3] = Open field test, motor activity of mice given nicotine; conditions: nicotine 0.3 mg/kg s.c. over 4 days
Text: The effects of I) the combination of ultra-low doses of polyclonal rabbit antibodies to brain-specific protein S-100 (ULD anti-S100) and ultra-low doses of antibodies to cannabinoid receptor type 1 (ULD anti-CB1), each obtained by hyper-dilution of the initial matrix solution 100^12, 100^30, 100^200 times (mixture of centesimal homeopathic dilutions C12, C30, C200) (ULD anti-S100+ULD anti-CB1), ii) ULD anti-CB1 alone, and iii) ULD anti-S100 alone, on motor activity of mice were studied to evaluate their anti-nicotine properties.
40 white outbred male mice (22-25 g, 1.5 mo.) were used. 10 mice were intact. The rest of the mice were administered nicotine subcutaneously over 4 days at the dose of 0.3 mg/kg, Nicotine administration was preceded (1 hour prior) by intragastrical administration of either distilled water (control, 0.4 ml/mouse), or ULD anti-S100 (0.4 ml/mouse), or ULD anti-CB1 (0.4 ml/mouse), or ULD anti-S100+ULD anti-CB1 (0.4 ml/mouse). 30 minutes after the last administration of nicotine, an “open field” test was conducted. The animals were placed in the center of a TruScan photo-sensory installation (Coulbourn, USA), where the vertical and horizontal locomotor activity of the animals was automatically recorded in the course of two (2) minutes. The “open field” model makes it possible to evaluate the effect of the compounds on the locomotor activity of the animals (Gershenfield H. K., Neumann P. E., Mathis C., Crawley J. N., Li X., Paul S. M. Mapping quntative Trait Loci for Open-Field Behavior in Mice. Behavioral Genetics.—1997.—Vol. 27.—No 3.—p. 201-209, which is incorporated herein by reference in its entirety and for the purpose stated). The installation parameters: size 270×270×360 mm, divided into 64 squares, 2.5×2.5, with 25 mm openings situated in the platform floor, illumination of a 150 watt lamp.

Which “Consumption of feed (g per 10 g of body mass) per day” value ([1]; average over 5 months, M±m) does the source give for `CC(C)CC(N(C)C)C1(c2ccc(Cl)cc2)CCC1` (centres unmarked) [Subutramine] here?
Its value is 1.28 ± 0.05 g per 10 g of body mass per da.

And the “Consumption of feed (g/mouse) per day” value ([1]; average over 5 months, M±m)?
The value was 2.75 ± 1.36 g/mouse per day.

What about the “decrease of consumption of feed in reference to the control” value ([1]; intragastrically once a day, in a week) of the same molecule?
Its value is 19.3%.

And the “lowered body mass in comparison with the control group” value ([1]; last twentieth week)?
Its value is 51.5%.

And the “Body mass (grams)” value ([2]; week 0 (initial))?
The value was 13.82 grams.

What about the “Δ to initial (body mass growth, percentage of initial weight)” value ([2]; week 1) of the same molecule?
Its value is −2.6%.

What about the “Body mass (grams)” value ([2]; week 1) of the same molecule?
Its value is 13.45 grams.

What about the “Δ to initial (body mass growth, percentage of initial weight)” value ([2]; week 2) of the same molecule?
Its value is 21.1%.

And the “Body mass (grams)” value ([2]; week 2)?
The value was 16.73 grams.

And the “Δ to initial (body mass growth, percentage of initial weight)” value ([2]; week 3)?
The value was 43.4%.

And the “Body mass (grams)” value ([2]; week 3)?
Its value is 19.82 grams.

And the “Δ to initial (body mass growth, percentage of initial weight)” value ([2]; week 4)?
The value was 46.1%.

And the “Body mass (grams)” value ([2]; week 4)?
The value was 20.18 grams.

What about the “Δ to initial (body mass growth, percentage of initial weight)” value ([2]; week 5) of the same molecule?
The value was 51.3%.

And the “Body mass (grams)” value ([2]; week 5)?
The value was 20.91 grams.

What about the “Δ to initial (body mass growth, percentage of initial weight)” value ([2]; week 6) of the same molecule?
Its value is 61.8%.

And the “Body mass (grams)” value ([2]; week 6)?
Its value is 22.36 grams.

What about the “Δ to initial (body mass growth, percentage of initial weight)” value ([2]; week 7) of the same molecule?
Its value is 71.1%.

And the “Body mass (grams)” value ([2]; week 7)?
Its value is 23.64 grams.

And the “Δ to initial (body mass growth, percentage of initial weight)” value ([2]; week 8)?
The value was 65.8%.

And the “Body mass (grams)” value ([2]; week 8)?
The value was 22.91 grams.

Which “decrease of immobility time in comparison with the intact animals” value [3] does the source give for `CN1CCCC1c1cccnc1` (centres unmarked) [nicotine] here?
The value was 13.5%.

And the “increase of activity time in comparison with the intact animals” value [3]?
Its value is 8.2%.

What about the “increase of distance traveled in comparison with the intact animals” value [3] of the same molecule?
The value was 5.1%.

And the “increase of quantity of openings investigated in comparison with the intact animals” value [3]?
Its value is 78.2%.

And the “increase of study reaction time in comparison with the intact animals” value [3]?
The value was 76.9%.
